Data on 16 molecules can be found in US10035800B2 (AbbVie Inc., priority 2013, dated 2018).

For one experiment, the target named is T1, BRD4 (BDI_K57-E168) (Homo sapiens, UniProt O60885).
T1 construct: BD1: amino acids K57-E168; made in house
As to the kind of experiment: TR-FRET bromodomain binding assay, first bromodomain of BRD4. To be noted: TR-FRET assay protocol G (compound 0.92 μM-15 pM); 100 nM probe. The procedure, abridged:
(§1)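 TR-FRET displacement of an Alexa647-labelled BET-inhibitor probe from His-tagged BRD4 BD1 or BD2 (8 nM), read via 1 nM Eu-anti-His antibody after 1 h at room temperature. Buffer was 20 mM sodium phosphate pH 6.0 with 2% DMSO. Probe was 100 nM for BDI and 30 nM for BDII. IC50 came from 4-parameter fits, and Ki from IC50, probe Kd and probe concentration.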

The test system of experiment [1] is breast cancer cell line MX-1. Briefly: MX-1 cell line proliferation assay. To be noted: MX-1 cells, 3-day proliferation assay, Cell Titer Glo; read-out: Cellular proliferation: EC50. Type of experiment: cell-based. As to the method: MX-1 Cell Line Proliferation Assay
The impact of compounds of the Examples on cancer cell proliferation was determined using the breast cancer cell line MX-1 (ATCC) in a 3-day proliferation assay and the data are reported in Table 1. MX-1 cells were maintained in RPMI 1640 medium (Sigma) supplemented with 10% FBS at 37 C.° and an atmosphere of 5% CO2. For compound testing, MX-1 cells were plated in 96-well black bottom plates at a density of 5000 cells/well in 90 μL of culture media and incubated at 37° overnight to allow cell adhesion and spreading. Compound dilution series were prepared in DMSO via a 3-fold serial dilution from 3 mM to 0.1 μM. The DMSO dilution series were then diluted 1:100 in phosphate buffered saline, and 10 μL of the resulted solution were added to the appropriate wells of the MX-1 cell plate. The final compound concentrations in the wells were 3, 1, 0.3, 0.1, 0.03, 0.01, 0.003, 0.001, 0.0003, and 0.0001 μM or 1, 0.3, 0.1, 0.03, 0.01, 0.003, 0.001, 0.0003, 0.0001, and 0.00003 μM.
Luminescence readings from the Cell Titer Glo assay were normalized to the DMSO treated cells and analyzed using the GraphPad Prism software with sigmoidal curve fitting to obtain EC50s. The minimum significant ratio (MSR) was determined to evaluate assay reproducibility (Eastwood et al., (2006) J Biomol Screen, 11: 253-261). The overall MSR was determined to be 2.1 and a moving MSR (last six run MSR overtime) has been <2.
A general note: In ATP-based viability assays light output follows the ATP content of the culture.

In a further experiment the target is T2, BRD4 (BDII_E352-M457) (Homo sapiens, UniProt O60885).
T2 construct: protocol; made in house
Briefly: TR-FRET bromodomain binding assay, second bromodomain of BRD4. To be noted: TR-FRET assay protocol G (compound 0.92 μM-15 pM); 30 nM probe. In short, it runs like this: as §1
(In general: TR-FRET usually uses a lanthanide donor and a delayed reading to cut background.)

A word on the Ki: it is the equilibrium dissociation constant of an inhibitor or competing ligand from its target. Read a low Ki as a stronger hold on the target. Regarding `Cn1cc2c3c(c(C#N)[nH]c3c1=O)CN(c1ccc(F)cc1F)c1ccc(CS(C)(=O)=O)cc1-2` [Example 210, 4-(2,4-difluorophenyl)-10-methyl-7-((methylsulfonyl)methyl)-11-oxo-3,4,10,11-tetrahydro-1H-1,4,10-triazadibenzo[cd,f]azulene-2-carbonitrile], the Ki turned out to be 1.72 nM at BRD4 (BDI_K57-E168) and 0.8 nM on BRD4 (BDII_E352-M457). Besides, the EC50 in experiment [1] came out at 13.3 nM.

Regarding `CC(C)CNC(=O)C1c2c[nH]c3c(=O)n(C)cc(c23)-c2cc(CS(C)(=O)=O)ccc2N1c1ccc(F)cc1F` (stereo not drawn) [Example 161, 4-(2,4-difluorophenyl)-N-isobutyl-10-methyl-7-((methylsulfonyl)methyl)-11-oxo-3,4,10,11-tetrahydro-1H-1,4,10-triazadibenzo[cd,f]azulene-3-carboxamide], the Ki at BRD4 (BDI_K57-E168) is 32.1 nM; at BRD4 (BDII_E352-M457), 21.4 nM. Also, the EC50 in experiment [1] amounted to 41.6 nM.

With `COC(=O)NC1CCC(N2Cc3c[nH]c4c(=O)n(C)cc(c34)-c3cc(CS(C)(=O)=O)ccc32)CC1` (stereo not drawn) [Example 224, methyl (4-(10-methyl-7-((methylsulfonyl)methyl)-11-oxo-10,11-dihydro-1H-1,4,10-triazadibenzo[cd,f]azulen-4(3H)-yl)cyclohexyl)carbamate], the values for the Ki at BRD4 (BDI_K57-E168) and at BRD4 (BDII_E352-M457) were 1.64 nM and 1.4 nM, respectively. Further, the EC50 in experiment [1] was 5.84 nM.

Consider `Cn1cc2c3c(c[nH]c3c1=O)CN(CC(C)(C)CN1CCOCC1)c1ccc(CS(C)(=O)=O)cc1-2` [Example 257, 4-(2,2-dimethyl-3-morpholinopropyl)-10-methyl-7-((methylsulfonyl)methyl)-3,4-dihydro-1H-1,4,10-triazadibenzo[cd,f]azulen-11(10H)-one], for which the Ki at BRD4 (BDI_K57-E168) came to 2.34 nM; at BRD4 (BDII_E352-M457), 9.19 nM. Also, in experiment [1], the EC50 was 21.1 nM.

Consider `Cn1cc2c3c(c[nH]c3c1=O)CN(CCc1ccc3c(c1)OCO3)c1c(F)cc(F)cc1-2` [Example 56, 4-(2-(benzo[d][1,3]dioxol-5-yl)ethyl)-5,7-difluoro-10-methyl-3,4-dihydro-1H-1,4,10-triazadibenzo[cd,f]azulen-11(10H)-one], for which the inhibition constant (Ki) was determined as 14.4 nM at BRD4 (BDI_K57-E168) and 35.3 nM on BRD4 (BDII_E352-M457). Further, in experiment [1], the EC50 was determined as 197 nM.

Take `CCNC(=O)c1[nH]c2c(=O)n(C)cc3c2c1CN(c1ccc(Cl)cc1)c1ccccc1-3` [Example 127, 4-(4-chlorophenyl)-N-ethyl-10-methyl-11-oxo-3,4,10,11-tetrahydro-1H-1,4,10-triazadibenzo[cd,f]azulene-2-carboxamide]: the Ki was determined as 2.68 nM on BRD4 (BDI_K57-E168) and 1.35 nM at BRD4 (BDII_E352-M457). In addition, the EC50 in experiment [1] was 41.7 nM.

As to `Cn1cc2c3c(c[nH]c3c1=O)C(CCC(=O)NC1CCNCC1)N(c1ccc(F)cc1F)c1ccc(CS(C)(=O)=O)cc1-2` (stereo not drawn) [Example 132, 3-(4-(2,4-difluorophenyl)-10-methyl-7-((methylsulfonyl)methyl)-11-oxo-3,4,10,11-tetrahydro-1H-1,4,10-triazadibenzo[cd,f]azulen-3-yl)-N-(piperidin-4-yl)propanamide], the Ki is 11.3 nM at BRD4 (BDI_K57-E168) and 3.14 nM at BRD4 (BDII_E352-M457). In experiment [1], the EC50 was > 1000 nM.

Consider `COC(=O)CCCCC1c2c[nH]c3c(=O)n(C)cc(c23)-c2cc(CS(C)(=O)=O)ccc2N1c1ccc(F)cc1F` (stereo not drawn) [Example 134, methyl 5-(4-(2,4-difluorophenyl)-10-methyl-7-((methylsulfonyl)methyl)-11-oxo-3,4,10,11-tetrahydro-1H-1,4,10-triazadibenzo[cd,f]azulen-3-yl)pentanoate], for which the inhibitory constant (Ki) was found to be 14.4 nM on BRD4 (BDI_K57-E168) and 1.11 nM on BRD4 (BDII_E352-M457). Further, in experiment [1], the EC50 turned out to be 182 nM.

For `Cn1cc2c3c(c[nH]c3c1=O)C(CCCOc1ccccc1)N(c1ccc(F)cc1F)c1ccc(CS(C)(=O)=O)cc1-2` (stereo not drawn) [Example 143, 4-(2,4-difluorophenyl)-10-methyl-7-((methylsulfonyl)methyl)-3-(3-phenoxypropyl)-3,4-dihydro-1H-1,4,10-triazadibenzo[cd,f]azulen-11(10H)-one], the Ki was determined as 54.9 nM at BRD4 (BDI_K57-E168) and 3.06 nM at BRD4 (BDII_E352-M457). In experiment [1], the EC50 amounted to 175 nM.

In the case of `COCCCC1c2c[nH]c3c(=O)n(C)cc(c23)-c2cc(CS(C)(=O)=O)ccc2N1c1ccc(F)cc1F` (stereo not drawn) [Example 147, 4-(2,4-difluorophenyl)-3-(3-methoxypropyl)-10-methyl-7-((methylsulfonyl)methyl)-3,4-dihydro-1H-1,4,10-triazadibenzo[cd,f]azulen-11(10H)-one], the Ki was found to be 7.02 nM on BRD4 (BDI_K57-E168) and 0.97 nM on BRD4 (BDII_E352-M457). Besides, the EC50 in experiment [1] was 20.3 nM.

Turning to `COC(=O)CNC(=O)C1c2c[nH]c3c(=O)n(C)cc(c23)-c2cc(CS(C)(=O)=O)ccc2N1c1ccc(F)cc1F` (stereo not drawn) [Example 155, methyl 2-(4-(2,4-difluorophenyl)-10-methyl-7-((methylsulfonyl)methyl)-11-oxo-3,4,10,11-tetrahydro-1H-1,4,10-triazadibenzo[cd,f]azulene-3-carboxamido)acetate], the inhibition constant (Ki) on BRD4 (BDI_K57-E168) stood at 42.7 nM; on BRD4 (BDII_E352-M457), 47.8 nM. Also, the EC50 in experiment [1] came out at 349 nM.

With `Cn1cc2c3c(c[nH]c3c1=O)C(c1cccc3cccnc13)N(c1ccc(F)cc1F)c1ccc(CS(C)(=O)=O)cc1-2` (stereo not drawn) [Example 231, 4-(2,4-difluorophenyl)-10-methyl-7-((methylsulfonyl)methyl)-3-(quinolin-8-yl)-3,4-dihydro-1H-1,4,10-triazadibenzo[cd,f]azulen-11(10H)-one], the Ki was 39 nM at BRD4 (BDI_K57-E168) and 5.42 nM on BRD4 (BDII_E352-M457). For the same molecule, the EC50 in experiment [1] stood at 149 nM.

As for `Cn1cc(-c2[nH]c3c(=O)n(C)cc4c3c2CN(c2ccc(F)cc2F)c2ccc(S(C)(=O)=O)cc2-4)cn1` [Example 270, 4-(2,4-difluorophenyl)-10-methyl-2-(1-methyl-1H-pyrazol-4-yl)-7-(methylsulfonyl)-3,4-dihydro-1H-1,4,10-triazadibenzo[cd,f]azulen-11(10H)-one], the Ki on BRD4 (BDI_K57-E168) was 11 nM; at BRD4 (BDII_E352-M457) it was 3.35 nM. Also, in experiment [1], the EC50 stood at 80.7 nM.

For the molecule `CN(C)CCCC1c2c[nH]c3c(=O)n(C)cc(c23)-c2cc(CS(C)(=O)=O)ccc2N1c1ccc(F)cc1F` (racemic) [Example 175, 4-(2,4-difluorophenyl)-3-(3-(dimethylamino)propyl)-10-methyl-7-((methylsulfonyl)methyl)-3,4-dihydro-1H-1,4,10-triazadibenzo[cd,f]azulen-11(10H)-one], the Ki on BRD4 (BDI_K57-E168) is 15 nM; at BRD4 (BDII_E352-M457) it was 1.9 nM. Further, the EC50 in experiment [1] came out at 99.9 nM.

As for `Cn1cc2c3c(c[nH]c3c1=O)C(CN1Cc3ccccc3C1=O)N(c1ccc(F)cc1F)c1ccc(CS(C)(=O)=O)cc1-2` (stereo not drawn) [Example 220, 4-(2,4-difluorophenyl)-10-methyl-7-((methylsulfonyl)methyl)-3-((1-oxoisoindolin-2-yl)methyl)-3,4-dihydro-1H-1,4,10-triazadibenzo[cd,f]azulen-11(10H)-one], the inhibitory constant (Ki) at BRD4 (BDI_K57-E168) worked out at 51.6 nM; on BRD4 (BDII_E352-M457) it was 2.61 nM. Moreover, in experiment [1], the EC50 turned out to be 285 nM.

Take `CN1CCN(C(=O)C2c3c[nH]c4c(=O)n(C)cc(c34)-c3cc(CS(C)(=O)=O)ccc3N2c2ccc(F)cc2)CC1` (stereo not drawn) [Example 41, 4-(4-fluorophenyl)-10-methyl-3-(4-methylpiperazine-1-carbonyl)-7-((methylsulfonyl)methyl)-3,4-dihydro-1H-1,4,10-triazadibenzo[cd,f]azulen-11(10H)-one]: the Ki came to 49.5 nM at BRD4 (BDI_K57-E168) and 57.8 nM at BRD4 (BDII_E352-M457). In experiment [1], the EC50 is > 1000 nM.
